Data reported in PubChem BioAssay (NCI).
Where “and” joins values, the source holds several entries; their conditions need not be identical. Equal entries are not always repeated.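 Step 1: Grow cells in 96-well plates. Step 2: Expose to compound for 48 hours at 5 concentrations. Step 3: Interpolate endpoints linearly; if unreached, use highest concentration. Here, GI50 denotes the concentration required for 50% inhibition of growth. TGI marks complete inhibition of growth.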

Tests used:
Assay in all cases: NCI tumour cell line growth inhibition, 48 h
786-0 renal = tested on: 786-0 renal
ACHN renal = tested on: ACHN renal
CAKI-1 renal = tested on: CAKI-1 renal
HT29 colon = tested on: HT29 colon
KM12 colon = tested on: KM12 colon
NCI-H522 lung = tested on: NCI-H522 lung
OVCAR-5 ovarian = tested on: OVCAR-5 ovarian
SF-295 CNS = tested on: SF-295 CNS
SR leukemia = tested on: SR leukemia
T-47D breast = tested on: T-47D breast

Row | SMILES | GI50 (786-0 renal) | TGI (786-0 renal) | GI50 (ACHN renal) | TGI (ACHN renal) | GI50 (CAKI-1 renal) | TGI (CAKI-1 renal) | GI50 (HT29 colon) | TGI (HT29 colon) | GI50 (KM12 colon) | TGI (KM12 colon) | GI50 (NCI-H522 lung) | TGI (NCI-H522 lung) | GI50 (OVCAR-5 ovarian) | TGI (OVCAR-5 ovarian) | GI50 (SF-295 CNS) | TGI (SF-295 CNS) | GI50 (SR leukemia) | TGI (SR leukemia) | GI50 (T-47D breast) | TGI (T-47D breast)
1 | Nc1nc(Nc2ccccc2)c2ncn(Cc3cc4c(cc3Br)OCO4)c2n1 | 0.0659 µM | 16.2 µM | 0.0799 µM | 30.4 µM | 0.135 µM | > 55.2 µM | 0.0484 µM | 0.706 µM | 0.0418 µM | 21 µM | 0.0316 µM | 0.207 µM | 0.282 µM | > 80.3 µM | 0.037 µM | 7.27 µM | 0.0371 µM | > 100 µM | < 0.01 µM | 21.4 µM
2 | Nc1nc(Br)nc2c1ncn2C1CC(O)C(CO)O1 (centres undefined) | 34.2 µM | > 100 µM | 3.7 µM | > 100 µM | 2.88 µM | > 29.9 µM | 47.7 µM | > 100 µM | > 100 µM | > 100 µM | 0.698 µM | > 100 µM | 90.8 µM | > 100 µM | 18.4 µM | > 76.4 µM | 3.13 µM | > 22.4 µM | > 60.7 µM | > 100 µM
3 | CCN1C(=O)N(CC)C2C1NC(=S)N2/N=C/C=C/c1cccs1 (centres undefined) | 0.615 µM | > 100 µM | 0.804 µM | > 100 µM | 0.248 µM | > 100 µM | 0.352 µM | > 100 µM | 0.312 µM | > 100 µM | 0.214 µM | 1.69 µM | 0.544 µM | > 100 µM | 0.258 µM | > 100 µM | 0.217 µM | > 38.9 µM | 0.428 µM | > 100 µM
4 | O=C1c2ccn(CCCCNC(CO)(CO)CO)c2C(=O)c2c1c(O)c1ccccc1c2O | 2.29 µM | 6.05 µM | 0.56 µM | 1.89 µM | 0.808 µM | 2.68 µM | 1.83 µM | 4.37 µM | 0.592 µM | 1.76 µM | 4.38 µM | > 100 µM | 1.91 µM | 4.4 µM | 0.719 µM | 2.24 µM | 2.42 µM | 5.76 µM | 2.76 µM | > 22.1 µM
5 | CC(=O)Oc1ccccc1C(=O)N=C1[Se]CCN1C(=O)c1ccccc1OC(C)=O | 1.46 µM | 2.8 µM | 1.4 µM | 2.86 µM | 0.671 µM | 1.98 µM | 0.637 µM | 4.46 µM | 1.1 µM | > 100 µM | 1.22 µM | 2.7 µM | 0.839 µM | 6.11 µM | 1.43 µM | 2.8 µM | 1.51 µM | > 100 µM | 1.84 µM | 5.06 µM
6 | CC(=O)c1c(CBr)n([O-])c2ccccc2[n+]1=O | 5.59 µM | 17.7 µM | 8.12 µM | 20.4 µM | 12.9 µM | 25.8 µM | 8.34 µM | 25.9 µM | 15 µM | 29.2 µM | 2.93 µM | 8.91 µM | 18.5 µM | 44.4 µM | 19.8 µM | 43.8 µM | 3.22 µM | 8.03 µM | 2.87 µM | 11.4 µM
7 | Cc1[nH]n(-c2cccc(Cl)c2)c(=O)c1/C=C1\C=Nc2ccc(Br)cc21 | 2.14 µM | 4.68 µM | 2.46 µM | 5.9 µM | 2.43 µM | 13.5 µM | 4.5 µM | > 100 µM | 6.65 µM | > 100 µM | 3.67 µM | 17.5 µM | 3.1 µM | 10.2 µM | 3.6 µM | 14.2 µM | 1.88 µM | 3.99 µM | 2.06 µM | 6.26 µM
8 | O=C(Nc1ccc(Cl)cc1F)c1cc(Br)ccc1O | 2.58 µM | 7.43 µM | 1.12 µM | 16.7 µM | 0.505 µM | 4.19 µM | 3.67 µM | > 100 µM | 2.13 µM | 5.92 µM | 0.481 µM | 9.23 µM | 3.71 µM | > 100 µM | 1.65 µM | 3.51 µM | 0.7 µM | > 23 µM | 0.56 µM | 4.46 µM
9 | Cc1ccc(N(CSc2ccc(Cl)cc2)CSc2ccc(Cl)cc2)cc1 | 1.66 µM | 7.66 µM | 2.11 µM | 15.7 µM | 0.829 µM | 8.16 µM | 1.85 µM | 24.1 µM | 0.51 µM | 12.5 µM | 1.49 µM | 3.18 µM | 1.74 µM | 13 µM | 0.375 µM | 2.6 µM | 1.04 µM | 4.86 µM | 2.92 µM | 18.3 µM
10 | COC(=O)[C@@H](NC(=O)[C@@H](OC)[C@@H]1Cc2cc3cc(OC4CC(OC5CC(O)C(O)C(C)O5)C(O)C(C)O4)c(C)c(O)c3c(O)c2C(=O)[C@H]1OC1CC(OC2CC(OC3CC(C)(O)C(O)C(C)O3)C(O)C(C)O2)C(O)C(C)O1)C(C)C (some centres undefined) | 0.175 µM | 5.98 µM | 0.0956 µM | 3.7 µM | 0.107 µM | 1.67 µM | 0.129 µM | > 32.5 µM | 0.154 µM | > 32.5 µM | 0.112 µM | 2.02 µM | 0.265 µM | 10.8 µM | 0.0934 µM | 2.11 µM | 0.0174 µM | 5.08 µM | 0.202 µM | > 32.5 µM
11 | Nc1ccncc1/C=C1/C(=O)Nc2ccccc21 | 34.8 µM | > 100 µM | 43.7 µM | > 100 µM | 30.2 µM | 89.7 µM | 27.8 µM | > 100 µM | 25 µM | > 100 µM | 24 µM | 71.6 µM | 75.3 µM | > 100 µM | 28.2 µM | 79 µM | 23.2 µM | > 100 µM | > 100 µM | > 100 µM
12 | CN(C)c1ccc2nc3ccc(=O)cc-3sc2c1 | 2.06 µM | > 100 µM | 0.274 µM | > 49.1 µM | 2.24 µM | > 90.7 µM | 4.26 µM | 37.1 µM | 0.781 µM | > 78.7 µM | 0.835 µM | 7.85 µM | 4.68 µM | > 70.2 µM | 1.52 µM | 10.9 µM | 0.884 µM | > 46.5 µM | 1 µM | > 100 µM
13 | CN1CCc2c(Sc3ccc(C(=O)NO)cc3)c3ccccc3n2C1 | 4.12 µM | 15.3 µM | 3.04 µM | 12.6 µM | 3.95 µM | 14.5 µM | 2.83 µM | 12.2 µM | 1.72 µM | 3.67 µM | 1.14 µM | 2.62 µM | 2.6 µM | 10.7 µM | 2.13 µM | 4.84 µM | 2.69 µM | 9.92 µM | 1.62 µM | 5.84 µM
14 | O=C(Nc1cccc(Cl)c1)c1cc2ccccc2cc1O | 3.6 µM and 3.12 µM | > 100 µM | 2.55 µM and 0.609 µM | > 100 µM | 2.1 µM and 1.51 µM | > 100 µM | 45.8 µM and 29.1 µM | > 100 µM | 3.17 µM and 2.71 µM | > 100 µM | 1.03 µM and 0.583 µM | 7.09 µM and 7.92 µM | 6.59 µM and 1.98 µM | > 100 µM | 4.11 µM and 13.1 µM | > 100 µM | 3.9 µM and 3.79 µM | > 100 µM | 1.88 µM and 1.73 µM | 8.92 µM and 6.82 µM
15 | O=C(O)c1c(-c2nccc3ccccc23)[nH]c(-c2ccccc2)c1S(=O)(=O)O |  | > 100 µM |  | > 100 µM |  | > 100 µM |  | > 100 µM |  | > 100 µM |  | > 100 µM |  | > 100 µM |  | > 100 µM |  | > 100 µM |  | > 100 µM
16 | O=C(O)c1ccccc1-c1ccccc1C(=O)Nc1ccc2c(c1)Cc1cc(F)ccc1-2 |  | > 100 µM |  | 64.2 µM |  | > 100 µM |  | > 100 µM |  | > 100 µM |  | 63 µM |  | 88.1 µM |  | 94.2 µM |  | 48.9 µM |  | > 100 µM
17 | Cc1c(C2Nc3ccccc3C2C)[nH]c2ccccc12 (centres undefined) | 12 µM | 31.5 µM | 10.1 µM | 23.1 µM | 2.45 µM | 22.8 µM | 4.48 µM | 23.1 µM | 7.45 µM | 29.1 µM | 10.8 µM | 26.5 µM | 14.8 µM | 30.9 µM | 11.5 µM | 28.1 µM | 0.738 µM | 26.3 µM | 6.16 µM | 24 µM
18 | O=C1/C(=C\c2cccn2Cc2ccccc2)c2ccccc2N1c1c(Cl)cccc1Cl | > 100 µM | > 100 µM | 7.9 µM | > 100 µM | > 28.9 µM | > 100 µM | 10.7 µM | > 100 µM | 0.866 µM | > 53.4 µM | > 100 µM | > 100 µM | 4.37 µM | > 100 µM | > 100 µM | > 100 µM | > 73.4 µM | > 100 µM | 0.266 µM | 1.93 µM
19 | CCN(CC)CCNCC(=O)Oc1ccc(/C=C/C(=O)CC(=O)/C=C/c2ccc(OC(=O)CNCCN(CC)CC)c(OC)c2)cc1OC | 2.38 µM | 5.93 µM | 5.28 µM | 20.8 µM | 3.2 µM | 15.8 µM | 2.36 µM | 6.02 µM | 3.5 µM | 31.6 µM | 3.29 µM | 11.6 µM | 3.83 µM | 15.1 µM | 5.55 µM | 22.2 µM | 3.14 µM | > 100 µM | 6.1 µM | 31.6 µM
20 | Fc1ccc(Nc2cc(-n3nnc4ccccc43)nc3ccccc23)cc1 | 13.1 µM | > 49.9 µM | > 62.6 µM | > 100 µM | 41.5 µM | > 68.9 µM | 43.9 µM | > 100 µM | > 100 µM | > 100 µM | 66.3 µM | > 100 µM | > 100 µM | > 100 µM | 13.4 µM | 41.5 µM | > 100 µM | > 100 µM |  | > 100 µM
